According to paper PMC9028219 (Frontiers in Nutrition, 2022):
Where two headings read alike, the source gives them in different places.

How the values were obtained:
[1] = system: Sarcoma-180 (S-180) tumor; conditions: for Tumor growth inhibition: days 1-9, evaluated day 12; for Tumor cell count Mean ± S.E / Tumor volume Mean ± S.E / Tumor weight Mean ± S.E: days 1-9, evaluated day 12, n = 5
Protocol: The S-180 cells were collected from Swiss albino mice harboring 8–10 days old cells from the peritoneal cavity. On day 0, the S-180 cells (1 × 10^7 cells/ml) were injected intra-peritoneal in non-inbred female Swiss albino mice (22–25 g, 8–10 weeks old) selected for the experiment. The next day (Day 1), the animals were randomized and divided into three treatment groups, one positive control group and one vehicle control group containing 5 animals in each group. […] The fourth group was given 5-fluorouracil; positive control at a dose of 20 mg/kg bw i.p. from day 1–9, and the fifth group (control) was administered normal saline (0.2 ml i.p.) for 9 days. On day 12, the animals were sacrificed, and the fluid was collected from each mouse's peritoneal cavity to evaluate tumor growth ([43]). The tumor growth inhibition was calculated using the following formula.
Tumor Growth Inhibition(%)=(Number of tumor cells in control group-Number of tumor cells in the test group)/Number of tumor cells in the control group×100

resistant species = conditions: against the resistant species; ref [8], [9]; cited from earlier work
FaDu cells [2] = experiment: Cell cycle analysis (PI, flow cytometer); assay type: cell-based, human; conditions: PI staining
Protocol: (§1) The cell cycle analysis was carried out by the protocol reported by Fatima et al. ([40]). The cell lines were fixed with 70% ethanol. Before analysis, fixed cells were washed at least two times with PBS and PI solution containing RNase A to stain the cells. The samples were run on a flow cytometer within 1 h. Treated FaDu cells were incubated with 10 μM of DCFH-DA dye for 30 min then fluorescence was measured at 485/530 nm of […]. For FACS analysis, treated cells were incubated with 10 μM of DCFH-DA dye for 30 min, and the samples were analyzed within 1 h ([41]). The protocol for the analysis of MMP was similar to that of DCFH-DA except for Rhodamine 123 dye ([41]). The experiment was also carried out as per the method reported in Annexin-V-FITC apoptosis detection kit I (BD Pharmingen^TM, Catalog No. 556547). For the assay, 1 × 10^6 cells were grown in 6 well plates and treatment was given 24 h. The next day, cells were washed with cold PBS, and the pellet was resuspended in 100 μl (1X binding) buffer and left for 15 min followed by incubation with a dual fluorescent dye (5 μl FITC and 5 μl PI) for 10 min. The cell suspension was maintained upto 500 μl from the 1X binding buffer. The stained cells were analyzed by flow cytometer within 1 h ([42]).

[3] = system: HEK-293 (normal) cell line; experiment: Anti-proliferative activity (SRB, MTT, NRU assays); assay type: cell-based, human
Protocol: (§2) The cell lines used for the present study were K562 (erythroid leukemia), COLO-205 (colon carcinoma), FaDu (hypopharyngeal carcinoma), MCF-7 (breast ER+ve adenocarcinoma), WRL-68 (hepatocellular carcinoma), A549 (lung carcinoma), and HEK-293 (embryonic kidney). These cell lines were purchased from the National Center for Cell Sciences (NCCS), Pune, India, except FaDu, which Dr. Sarkar endowed from CSIR-Central Drug Research Institute, Lucknow, Uttar Pradesh, India.
(§3) The SRB assay was carried out by following the method reported by Skehan et al. ([27]) with a slight modification ([28]). In 96 well plates, approximately ~2 ×10^3 cells per well were seeded. […] Approximately 20% of TCA was added in treated plates to precipitate cellular proteins, followed by washing cells with tap water and adding 10 μl SRB dye (0.4%) in each well of the plate. Then, the plate was washed with 1% acetic acid to remove the unbound dye. The bound dye was dissolved in 200 μl tris base (10 mM). The absorbance was finally measured at 515 nm using a spectrophotometer (Multiskan^TM Go SkanIt Software, version 4.0, Thermo Fisher Scientific, Waltham, MA, USA).
(§4) The NRU assay was carried out by Babich and Borenfreund ([29]) method. Similar to the SRB assay, 5 μl NRU dye was added to the treated plate. Then, cells were washed with fixative solution after 3 h of incubation; further, the bound dye was solubilized in a dissolving solution. The absorbance was measured at 540 nm ([29]).
(§5) The MTT assay was performed following the protocol as Mosmann ([30]) determined. […] The next day, 10 μl (500 μg/ml) of MTT dye was added to each well of the plate and further incubated for 4 h. After that, the formazan crystal was dissolved in 100 μl DMSO and absorbance was measured at 570 nm. The SRB, NRU, and MTT assays were calculated using percentage cytotoxicity concerning control ([30]).

COLO-205 = experiment: Anti-proliferative activity (SRB, MTT, NRU assays); assay type: cell-based, human; conditions: COLO-205, higher tested concentration 100 μM
Protocol: as §2, §3, §4, §5

WRL-68 = experiment: Anti-proliferative activity (SRB, MTT, NRU assays); assay type: cell-based, human; conditions: WRL-68, higher tested concentration 100 μM
Protocol: as §2, §3, §4, §5

MCF-7 = experiment: Anti-proliferative activity (SRB, MTT, NRU assays); assay type: cell-based, human; conditions: MCF-7, higher tested concentration 100 μM
Protocol: as §2, §3, §4, §5

Lipoxygenase-5 (LOX-5) = Lipoxygenase-5 (LOX-5) (Homo sapiens, UniProt P09917); experiment: LOX-5 activity assay in cell lysate
Protocol: (§9) Cyclooxygenase-2 (COX-2) activity was measured as reported by Kulmaczand Lands ([33]). The reaction cocktail consists of Tris-HCl buffer (100 mM and pH 8.0), EDTA (3 μM), hematin (15 μM), and cell lysate. After incubation, arachidonic acid (AA) and N,N,N′,N′-tetra methyl-p-phenylenediamine (TMPD) was added to 96 well plates to initiate the reaction. The reaction mixture was immediately auto mixed using the Multiscan Go of Thermo Scientific spectrophotometer, and absorbance was measured at 590 nm ([33]). The enzyme inhibition was calculated concerning control. […] Approximately 40 μM of AA was mixed to initiate the reaction, and the plate was kept for 4 min at room temperature. The reaction was terminated by adding an equal ratio of reagent 1 (4.5 mM FeSo4 in HCl) and reagent 2 (3% NH4SCN). The absorbance was taken at 480 nm using a spectrophotometer ([34]). The enzyme inhibition was compared concerning control.

Cathepsin D (CATD) = biological target: T1, Cathepsin D (CATD) (Homo sapiens, UniProt P07339); experiment: CATD activity assay in cell lysate; assay type: cell-based
T1 construct: endogenous in cells; host or cells: FaDu, K562, A549
Protocol: (§6) Protein was estimated by nanodrop before being used for the enzyme assays.
(§7) The HYAL assay was performed by the standard reported protocol ([35]). Approximately 10 μg of cell lysate added in enzyme diluent buffer (77 mM sodium chloride, 20 mM sodium phosphate, 0.01% albumin, and pH 7.0 at 37°C). The reaction mixture was incubated for 45 min after adding HA (substrate). The mixture was distributed in three parts, each well of the plate containing 25 μl followed by the addition of 125 μl of diluent buffer (79 mM acetic acid, 24 mM sodium acetate, 0.1% albumin bovine, and pH 3.75). The absorbance was measured at 600 nm after 10 min incubation. The graph was shown in the terms of percentage inhibition. Hemoglobin was used as a substrate to determine CATD activity ([36]). Cell lysate (10 μg) was incubated with a reaction cocktail (2.5% of hemoglobin, deionised water, 400 mM citrate buffer, and pH 2.8) for 30 min at 37°C; the reaction was terminated by adding 5% TCA. Then, 200 μl of supernatant was taken in plate after centrifuge and absorbance were measured at 280 nm.

Hyaluronidase (HYAL) = experiment: HYAL activity assay in cell lysate; assay type: cell-based, human
Protocol: as §6, §7

FaDu cells [4] = experiment: Annexin V-FITC/PI apoptosis assay; assay type: cell-based, human
Protocol: as §1

FaDu [5] = experiment: MTT anti-proliferative assay; assay type: cell-based; conditions: Homo sapiens
Protocol: as §2, §5

mTOR = experiment: ELISA kit assay in FaDu cells; assay type: cell-based, human
Protocol: (§8) The PI3K expression was determined using a kit procured from Bioassay Technology (Catalog No. E0896Hu). The protocol measured the AKT (Catalog No. 201-12-0893) and HDAC-6 (Catalog No. 201-12-2132) as indicated in the human-specific ELISA kit from Sun Red Company, China. mTOR (Catalog No. E-EL-H1655) was quantified by a kit purchased from ELab Sciences, USA. The VEGF (Catalog No. ab100663) and HIF-1α (Catalog No. ab171577) were estimated using a kit procured from Abcam, UK.

PI3K = experiment: ELISA kit assay in FaDu cells; assay type: cell-based, human
Protocol: as §8

AKT = experiment: ELISA kit assay in FaDu cells; assay type: cell-based, human
Protocol: as §8

VEGF = experiment: ELISA kit assay in FaDu cells; assay type: cell-based, human; conditions: both tested concentrations
Protocol: as §8

HDAC-6 = experiment: ELISA kit assay in FaDu cells; assay type: cell-based, human
Protocol: as §8

HIF-1α = experiment: ELISA kit assay in FaDu cells; assay type: cell-based, human; conditions: both tested concentrations
Protocol: as §8

[6] = biological target: T2, Ornithine decarboxylase (ODC) (Homo sapiens, UniProt P11926); experiment: ODC activity assay in lysate of treated cells; assay type: cell-based; conditions: A549, 100 μM
T2 construct: endogenous in cells; host or cells: A549

FaDu cells [7] = experiment: Mitochondrial membrane potential (Rhodamine 123); assay type: cell-based, human
Protocol: as §1

A549 = experiment: NRU anti-proliferative assay; assay type: cell-based; conditions: Homo sapiens
Protocol: as §2, §4

FaDu [8] = experiment: NRU anti-proliferative assay; assay type: cell-based, human
Protocol: as §2, §4

[9] = biological target: T3, Dihydrofolate reductase (DHFR) (Homo sapiens, UniProt P00374); experiment: DHFR activity assay in lysate of treated cells; conditions: cell-based test system, higher tested concentration 100 μM
T3 construct: endogenous in cells; host or cells: FaDu, K562, A549
Protocol: as §6
In one set, ~10 μg of cell lysate was incubated with a reaction cocktail (2.3 mM DHFA, 0.11 mM β-NADPH in 50 mM potassium phosphate buffer, and pH 6.5), while another set was incubated in the reaction cocktail containing 0.1% bovine serum albumin (BSA) solution. The reaction mixture was mixed, and the kinetic study was performed at 340 nm for 5 min. The results were calculated using percentage inhibition concerning control ([31]). The ODC activity was determined by the modified method reported by Luqman et al. ([32]). Approximately 10 μg of cell lysate was added to the reaction cocktail (2.5 mM β-mercaptoethanol, 1.5 mM EDTA, 75 nM pyridoxal-phosphate, 3 mM L-ornithine hydrochloride in 150 mM potassium phosphate buffer, and pH 7.1). Approximately, 400 μl of 1 M perchloric acid was used to terminate the reaction, and NaOH (4N) was added to the supernatant. Further, 1-pentanol was added after centrifugation. Then, the upper organic phase was transferred to a microcentrifuge tube with 200 μl sodium borate, 200 μl TNBS, and 400 μl DMSO. Further, it was centrifuged, and 60 μl of supernatant was taken in plate, and absorbance was measured at 412 nm. The graph was plotted in the terms of percentage inhibition.

FaDu [10] = experiment: SRB anti-proliferative assay; assay type: cell-based; conditions: Homo sapiens, 72 h
Protocol: as §2, §3

K562 = experiment: SRB anti-proliferative assay; assay type: cell-based; conditions: Homo sapiens, K562, 72 h
Protocol: as §2, §3

FaDu cells [11] = experiment: ROS production (DCFH-DA); assay type: cell-based, human
Protocol: as §1

Cyclooxygenase-2 (COX-2) = Cyclooxygenase-2 (COX-2) (Homo sapiens, UniProt P35354); experiment: COX-2 activity assay in cell lysate; conditions: A549, 100 μM
Protocol: as §9

[12] = higher concentration (4 x IC50), 24 h

T1 sequence (P07339 65-412): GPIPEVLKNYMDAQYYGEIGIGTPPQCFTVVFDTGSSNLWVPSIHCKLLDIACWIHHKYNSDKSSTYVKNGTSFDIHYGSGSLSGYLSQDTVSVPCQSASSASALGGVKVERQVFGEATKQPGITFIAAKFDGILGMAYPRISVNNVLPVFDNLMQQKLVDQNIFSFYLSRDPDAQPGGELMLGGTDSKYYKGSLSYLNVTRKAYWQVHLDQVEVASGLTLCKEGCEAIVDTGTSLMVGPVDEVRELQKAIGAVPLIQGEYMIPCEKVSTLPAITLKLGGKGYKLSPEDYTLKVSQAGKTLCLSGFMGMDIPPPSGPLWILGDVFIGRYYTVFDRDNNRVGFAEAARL
Chain of Lipoxygenase-5 (LOX-5) (P09917 whole entry): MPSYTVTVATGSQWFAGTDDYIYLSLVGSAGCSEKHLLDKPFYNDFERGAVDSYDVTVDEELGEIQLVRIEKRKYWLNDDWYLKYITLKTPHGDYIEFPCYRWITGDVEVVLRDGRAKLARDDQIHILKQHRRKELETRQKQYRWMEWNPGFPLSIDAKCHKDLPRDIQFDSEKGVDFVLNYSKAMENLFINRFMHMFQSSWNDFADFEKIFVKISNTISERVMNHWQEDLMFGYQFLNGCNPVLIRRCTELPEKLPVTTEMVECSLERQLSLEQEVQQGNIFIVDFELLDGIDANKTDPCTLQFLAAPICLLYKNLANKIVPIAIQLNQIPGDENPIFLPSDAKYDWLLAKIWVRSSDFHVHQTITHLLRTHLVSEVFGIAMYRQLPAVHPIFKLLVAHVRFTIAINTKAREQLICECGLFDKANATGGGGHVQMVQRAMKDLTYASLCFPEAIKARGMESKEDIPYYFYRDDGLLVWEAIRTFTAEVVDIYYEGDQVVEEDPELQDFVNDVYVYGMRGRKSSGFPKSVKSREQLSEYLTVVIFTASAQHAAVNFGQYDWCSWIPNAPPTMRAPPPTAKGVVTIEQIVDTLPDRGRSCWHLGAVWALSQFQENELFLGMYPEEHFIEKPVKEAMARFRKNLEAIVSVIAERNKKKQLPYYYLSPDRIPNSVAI
Chain of Cyclooxygenase-2 (COX-2) (P35354 18-604): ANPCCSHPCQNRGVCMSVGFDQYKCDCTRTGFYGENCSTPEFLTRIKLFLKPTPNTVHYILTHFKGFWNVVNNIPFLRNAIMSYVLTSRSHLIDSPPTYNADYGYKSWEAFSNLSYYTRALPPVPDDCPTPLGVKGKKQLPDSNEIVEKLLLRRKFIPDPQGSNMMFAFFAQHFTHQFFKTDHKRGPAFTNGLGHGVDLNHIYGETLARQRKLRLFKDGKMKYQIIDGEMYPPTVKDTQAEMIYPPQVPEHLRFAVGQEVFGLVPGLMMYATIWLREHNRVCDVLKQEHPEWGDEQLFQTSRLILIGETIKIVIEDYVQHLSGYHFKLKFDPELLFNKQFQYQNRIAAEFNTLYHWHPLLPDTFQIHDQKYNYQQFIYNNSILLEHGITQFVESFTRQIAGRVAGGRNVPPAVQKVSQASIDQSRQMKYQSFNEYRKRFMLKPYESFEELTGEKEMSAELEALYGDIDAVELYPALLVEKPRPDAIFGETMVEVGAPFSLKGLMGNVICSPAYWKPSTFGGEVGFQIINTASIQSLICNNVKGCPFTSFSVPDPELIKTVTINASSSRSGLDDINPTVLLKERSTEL
T2 sequence (P11926 whole entry): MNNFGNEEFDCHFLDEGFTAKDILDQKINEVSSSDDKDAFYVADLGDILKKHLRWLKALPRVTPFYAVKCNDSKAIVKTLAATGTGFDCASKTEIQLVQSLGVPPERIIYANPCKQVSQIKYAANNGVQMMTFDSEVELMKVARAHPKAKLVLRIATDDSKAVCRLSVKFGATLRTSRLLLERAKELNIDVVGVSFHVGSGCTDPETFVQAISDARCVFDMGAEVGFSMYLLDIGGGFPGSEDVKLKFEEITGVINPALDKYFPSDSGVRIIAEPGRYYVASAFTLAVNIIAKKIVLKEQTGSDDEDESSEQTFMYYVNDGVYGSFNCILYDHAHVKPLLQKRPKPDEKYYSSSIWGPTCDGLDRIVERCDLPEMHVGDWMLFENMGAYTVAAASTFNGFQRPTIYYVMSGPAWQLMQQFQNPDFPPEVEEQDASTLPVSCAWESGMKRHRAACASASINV
T3 sequence (P00374 whole entry): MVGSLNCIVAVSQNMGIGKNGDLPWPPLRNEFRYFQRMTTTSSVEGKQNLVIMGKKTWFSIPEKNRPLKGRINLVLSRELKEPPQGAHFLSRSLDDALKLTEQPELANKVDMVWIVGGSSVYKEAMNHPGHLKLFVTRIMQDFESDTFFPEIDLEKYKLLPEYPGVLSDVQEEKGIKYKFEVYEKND

Cc1ccc(C(C)C)cc1O [carvacrol, 5-isopropyl-2-methyl phenol]
Tumor growth inhibition ([1]; 25 mg/kg bw i.p.): 28.12% | Tumor cell count Mean ± S.E ([1]; 25 mg/kg bw i.p.): 57.5 ± 8.72 1 × 10^7 | Tumor volume Mean ± S.E ([1]; 25 mg/kg bw i.p.): 3.5 ± 0.54 mL | Tumor weight Mean ± S.E ([1]; 25 mg/kg bw i.p.): 3.36 ± 0.60 g | Tumor growth inhibition ([1]; 50 mg/kg bw i.p.): 55.94% | Tumor cell count Mean ± S.E ([1]; 50 mg/kg bw i.p.): 35.25 ± 4.68^** 1 × 10^7 | Tumor volume Mean ± S.E ([1]; 50 mg/kg bw i.p.): 1.57 ± 0.25 mL | Tumor weight Mean ± S.E ([1]; 50 mg/kg bw i.p.): 1.39 ± 0.33 g | Tumor growth inhibition ([1]; 75 mg/kg bw i.p.): 72.62% | Tumor volume Mean ± S.E ([1]; 75 mg/kg bw i.p.): 1.16 ± 0.34 mL | Tumor weight Mean ± S.E ([1]; 75 mg/kg bw i.p.): 1.10 ± 0.41 g | effect on mice bw ([1]; 75, 50 and 25 mg/kg bw i.p.): no adverse effect | mortality ([1]; during the experimental period): no mortality was noticed | minimum inhibitory concentration (MIC) (resistant species): 0.015–0.03 % v/v | cell cycle phase arrest (FaDu cells [2]): arrests the G2/M phase of FaDu cells in a dose-dependent manner | sub-diploid population (FaDu cells [2]): raises the sub-diploid population number | cell growth inhibition [3]: approximately 25% | reduction of proliferation (COLO-205): up to 24% | reduction of proliferation (WRL-68): up to 24% | reduction of proliferation (MCF-7): up to 24% | suppression of LOX-5 activity (Lipoxygenase-5 (LOX-5); A549): < 50% | suppression of LOX-5 activity (Lipoxygenase-5 (LOX-5); K562): < 50% | suppression of CATD activity (Cathepsin D (CATD); A549): 2 ± 0.52% | suppression of CATD activity (Cathepsin D (CATD); FaDu): 18.48 ± 0.33% | suppression of CATD activity (Cathepsin D (CATD); K562): 5 ± 0.94% | reduction of HYAL enzyme action (Hyaluronidase (HYAL); A549, 100 μM): 39.15% | IC50 (Hyaluronidase (HYAL); FaDu): 88.1 ± 10.4 µM | IC50 (Hyaluronidase (HYAL); K562): 62 ± 8.4 µM | significance of effect on apoptosis and necrosis (FaDu cells [4]; Annexin V-FITC and PI): non-significant | early apoptosis (A+/P-) (FaDu cells [4]; [12]): 0.1% | late apoptosis (A+/P+) (FaDu cells [4]; [12]): 1.4% | necrosis (A-/P+) (FaDu cells [4]; [12]): 3.4% | IC50 (FaDu [5]): 9.61 ± 0.05 µM | effect on mTOR activity (mTOR): reduces the activity | effect on PI3K activity (PI3K): suppresses the activity of the PI3K/AKT at the higher tested concentration | effect on AKT activity (AKT): suppresses the activity of the PI3K/AKT at the higher tested concentration | effect on VEGF activity (VEGF): the effect was non-significant | effect on HDAC-6 activity (HDAC-6): inhibits HDAC-6 activity in a dose-dependent manner | effect on HIF-1α activity (HIF-1α): the effect was non-significant | reduction of ODC activity [6]: 35.68% | mitochondrial membrane potential (FaDu cells [7]): diminishes the membrane potential of the FaDu cell line at the tested concentrations | IC50 (A549): 80.9 ± 8.28 µM | growth inhibition (FaDu [8]): 35.32 ± 2.85% | suppression of DHFR enzyme action [9]: up to 7% | IC50 (FaDu [10]): 42 ± 11.4 µM | IC50 (K562): 81.3 ± 11.8 µM | ROS production (FaDu cells [11]): increases the ROS production in FaDu cell line in a dose-dependent manner; however, the effect was non-significant | reduction of COX-2 activity (Cyclooxygenase-2 (COX-2)): 13.33%
